# Data as given in patent US20210128566A1, “NOVEL FUNCTIONALIZED PURINE-2,6-DIONES AND THEIR USE IN MEDICINE” (THOMAS HELLEDAYS STIFTELSE FÖR MEDICINSK FORSKNING, priority 2017, published 2021).
# Target: recombinant human NUDT5 (Homo sapiens, UniProt Q9UKK9)
# Test: NUDT5 inhibitor activity by malachite green reporter assay
# Assay type: biochemical
# Settings: Table 3; 6 nM NUDT5, 50 μM ADP-Ribose, 15 minutes at room temperature
# Description: NUDT5 inhibitors were evaluated using a coupled enzymatic assay with detection of inorganic phosphate (Pi) using the malachite green assay. Following enzymatic hydrolysis of ADP-Ribose (Sigma-Aldrich A0572) by NUDT5, to yield AMP and ribose-5-phosphate, the latter product is continuously processed by a significant excess of alkaline phosphatase (Sigma-Aldrich, P0114). Formation of Pi is quantified based on the green complex (that absorbs at 630 nm) formed between malachite green and molybdate according to published procedure (Baykov, A. A., Evtushenko, O. A. and Avaeva, S. M., Anal Biochem, 171, 266-270 (1988)). Assay buffer consisted of 10 mM Tris-acetate at pH 8.0, 40 mM sodium chloride, 10 mM magnesium acetate, 0.005% Tween-20 and 1 mM dithiothreitol (DTT). The final conditions consisted of 6 nM recombinant human NUDT5, 50 μM ADP-Ribose and 10 U/ml of calf intestine alkaline phosphatase. The plates with compounds, enzymes and substrate were incubated at room temperature for 15 minutes, after which the reaction was terminated and the signal developed by the addition of the malachite green reagent using a MultiDrop (Thermo Scientific). Following vigorous shaking on plate shakers for a minimum of eight minutes the absorbance was read in a microplate reader (HidexSense) using a filter at 630 nm and a read time of 0.1 s per well. Inhibitors were used in dilutions from 100 μM to 1.7 nM in 3-fold dilution steps. Experiments were run in duplicate and confirmed in two independent experiments. IC50 values were determined by curve fitting using ExcelFit.
row,SMILES,IC50
1,"Cn1c(=O)c2c(nc(N3CC4(COC4)C3)n2Cc2nnc(-c3ccc(Cl)c(Cl)c3)o2)n(C)c1=O [Example 12, 7-{[5-(3,4-dichlorophenyl)-1,3,4-oxadiazol-2-yl]methyl}-1,3-dimethyl-8-{2-oxa-6-azaspiro[3.3]heptan-6-yl}-2,3,6,7-tetrahydro-1H-purine-2,6-dione]",42.5 nM
2,"Cc1cccc(-c2nnc(Cn3c(N4CCN(c5ccccc5)CC4)nc4c3c(=O)n(C)c(=O)n4C)o2)c1 [Example 58, 1,3-dimethyl-7-{[5-(3-methylphenyl)-1,3,4-oxadiazol-2-yl]methyl}-8-(4-phenylpiperazin-1-yl)-2,3,6,7-tetrahydro-1H-purine-2,6-dione]",> 1000 nM
3,"COC1CCN(c2nc3c(c(=O)n(C)c(=O)n3C)n2Cc2nnc(-c3ccc(Cl)c(Cl)c3)o2)CC1 [Example 43, 7-{[5-(3,4-dichlorophenyl)-1,3,4-oxadiazol-2-yl]methyl}-8-(4-methoxypiperidin-1-yl)-1,3-dimethyl-2,3,6,7-tetrahydro-1H-purine-2,6-dione]",26.8 nM
4,"COc1nc2c(c(=O)n(C)c(=O)n2C)n1Cc1nnc(-c2ccc(Cl)c(Cl)c2)o1 [Example 1, 7-{[5-(3,4-dichlorophenyl)-1,3,4-oxadiazol-2-yl]methyl}-8-methoxy-1,3-dimethyl-2,3,6,7-tetrahydro-1H-purine-2,6-dione]",29.1 nM
5,"CCCNc1nc2c(c(=O)n(C)c(=O)n2C)n1Cc1nnc(-c2cccc(C)c2)o1 [Example 49, 1,3-dimethyl-7-{[5-(3-methylphenyl)-1,3,4-oxadiazol-2-yl]methyl}-8-(propylamino)-2,3,6,7-tetrahydro-1H-purine-2,6-dione]",356 nM
6,"CCCCCCN1CCN(c2nc3c(c(=O)n(C)c(=O)n3C)n2Cc2nnc(-c3ccc(Cl)c(Cl)c3)o2)CC1 [Example 15, 7-{[5-(3,4-dichlorophenyl)-1,3,4-oxadiazol-2-yl]methyl}-8-(4-hexylpiperazin-1-yl)-1,3-dimethyl-2,3,6,7-tetrahydro-1H-purine-2,6-dione]",432 nM
7,"CC1CN(c2nc3c(c(=O)n(C)c(=O)n3C)n2Cc2nnc(-c3ccc(Cl)c(Cl)c3)o2)CC(C)N1 (stereo not drawn) [Example 29, 7-{[5-(3,4-dichlorophenyl)-1,3,4-oxadiazol-2-yl]methyl}-8-(3,5-dimethylpiperazin-1-yl)-1,3-dimethyl-2,3,6,7-tetrahydro-1H-purine-2,6-dione]",43.8 nM
8,"CN(C)c1nc2c(c(=O)n(C)c(=O)n2C)n1Cc1nnc(-c2ccc(Cl)c(Cl)c2)o1 [Example 3, 7-{[5-(3,4-dichlorophenyl)-1,3,4-oxadiazol-2-yl]methyl}-8-(dimethylamino)-1,3-dimethyl-2,3,6,7-tetrahydro-1H-purine-2,6-dione]",111 nM

# Same assay, conditions: Table 4; 6 nM NUDT5, 50 μM ADP-Ribose, 15 minutes at room temperature
row,SMILES,IC50
1,"Cn1c(=O)c2c(nc(N3CCNCC3)n2Cc2cnc(-c3ccc(Cl)cc3)s2)n(C)c1=O [Example 76, 7-{[2-(4-chlorophenyl)-1,3-thiazol-5-yl]methyl}-1,3-dimethyl-8-(piperazin-1-yl)-2,3,6,7-tetrahydro-1H-purine-2,6-dione]",376 nM
2,"COc1cccc(-c2nnc(Cn3c(N4CCNCC4)nc4c3c(=O)n(C)c(=O)n4C)o2)c1 [Example 111, 7-{[5-(3-methoxyphenyl)-1,3,4-oxadiazol-2-yl]methyl}-1,3-dimethyl-8-(piperazin-1-yl)-2,3,6,7-tetrahydro-1H-purine-2,6-dione]",119 nM
3,"COc1cc(-c2nnc(Cn3c(NCCNS(C)(=O)=O)nc4c3c(=O)n(C)c(=O)n4C)o2)ccc1C [Example 133, N-{2-[(7-{[5-(3-methoxy-4-methylphenyl)-1,3,4-oxadiazol-2-yl]methyl}-1,3-dimethyl-2,6-dioxo-2,3,6,7-tetrahydro-1H-purin-8-yl)amino]ethyl}methanesulfonamide]",352 nM
4,"COc1cc(-c2nnc(Cn3c(SCCNC(C)=O)nc4c3c(=O)n(C)c(=O)n4C)o2)ccc1C [Example 141, N-{2-[(7-{[5-(3-methoxy-4-methylphenyl)-1,3,4-oxadiazol-2-yl]methyl}-1,3-dimethyl-2,6-dioxo-2,3,6,7-tetrahydro-1H-purin-8-yl)sulfanyl]ethyl}acetamide]",306 nM
5,"Cn1c(=O)c2c(nc(Cl)n2Cc2nc(-c3ccc(Cl)cc3)no2)n(C)c1=O [Example 69, 8-chloro-7-{[3-(4-chlorophenyl)-1,2,4-oxadiazol-5-yl]methyl}-1,3-dimethyl-2,3,6,7-tetrahydro-1H-purine-2,6-dione]",296 nM
6,"Cc1cc(-c2nnc(Cn3c(Cl)nc4c3c(=O)n(C)c(=O)n4C)o2)ccc1Cl [Example 97, 8-chloro-7-{[5-(4-chloro-3-methylphenyl)-1,3,4-oxadiazol-2-yl]methyl}-1,3-dimethyl-2,3,6,7-tetrahydro-1H-purine-2,6-dione]",64.8 nM
7,"Cn1c(=O)c2c(nc(N3CCN(C(=O)OC(C)(C)C)CC3)n2Cc2nnc(-c3ccc([N+](=O)[O-])cc3)o2)n(C)c1=O [Example 100, tert-butyl 4-(1,3-dimethyl-7-{[5-(4-nitrophenyl)-1,3,4-oxadiazol-2-yl]methyl}-2,6-dioxo-2,3,6,7-tetrahydro-1H-purin-8-yl)piperazine-1-carboxylate]",9440 nM
8,"COc1ccc(-c2nnc(Cn3c(N4CCNCC4)nc4c3c(=O)n(C)c(=O)n4C)o2)cc1OC [Example 123, 7-{[5-(3,4-dimethoxyphenyl)-1,3,4-oxadiazol-2-yl]methyl}-1,3-dimethyl-8-(piperazin-1-yl)-2,3,6,7-tetrahydro-1H-purine-2,6-dione]",169 nM
9,"Cn1c(=O)c2c(nc(N3CCNC(C(F)(F)F)C3)n2Cc2nnc(-c3ccc(Cl)c(Cl)c3)o2)n(C)c1=O (stereo not drawn) [Example 134, 7-{[5-(3,4-dichlorophenyl)-1,3,4-oxadiazol-2-yl]methyl}-1,3-dimethyl-8-[3-(trifluoromethyl)piperazin-1-yl]-2,3,6,7-tetrahydro-1H-purine-2,6-dione]",140 nM
10,"Cn1c(=O)c2c(nc(NCCS(=O)(=O)O)n2Cc2nnc(-c3ccc(Cl)c(Cl)c3)o2)n(C)c1=O [Example 82, 2-[(7-{[5-(3,4-dichlorophenyl)-1,3,4-oxadiazol-2-yl]methyl}-1,3-dimethyl-2,6-dioxo-2,3,6,7-tetrahydro-1H-purin-8-yl)amino]ethane-1-sulfonic acid]",454 nM
11,"Cc1ccc(-c2cc(Cn3c(Cl)nc4c3c(=O)n(C)c(=O)n4C)no2)cc1 [Example 80, 8-chloro-1,3-dimethyl-7-{[5-(4-methylphenyl)-1,2-oxazol-3-yl]methyl}-2,3,6,7-tetrahydro-1H-purine-2,6-dione]",3790 nM
12,"CCOC(=O)c1cn2c(n1)CN(c1nc3c(c(=O)n(C)c(=O)n3C)n1Cc1nnc(-c3ccc(Cl)c(Cl)c3)o1)CC2 [Example 81, ethyl 7-(7-{[5-(3,4-dichlorophenyl)-1,3,4-oxadiazol-2-yl]methyl}-1,3-dimethyl-2,6-dioxo-2,3,6,7-tetrahydro-1H-purin-8-yl)-5H,6H,7H,8H-imidazo[1,2-a]pyrazine-2-carboxylate]",149 nM
13,"COc1cc(-c2nnc(Cn3c(N4CCNCC4)nc4c3c(=O)n(C)c(=O)n4C)o2)ccc1C [Example 119, 7-{[5-(3-methoxy-4-methylphenyl)-1,3,4-oxadiazol-2-yl]methyl}-1,3-dimethyl-8-(piperazin-1-yl)-2,3,6,7-tetrahydro-1H-purine-2,6-dione]",35.7 nM
